Test results taken from patent publication US4190725A, “5,6-Diaryl-1,2,4-triazines” (Eli Lilly and Company, priority 1978, dated 1980).

System: Erythemic response
Assay: Erythemic response inhibition, UV-exposed guinea pig skin (modified method of Winder), topical
Assay type: in vivo, Albino guinea pigs
Settings: groups of four; for Inhibition % (% Inhibition compared with control): dose 100 mcg./12 cm.^2, in 0.1 cc. ethanol; for ED50 (dose which produced a 50% inhibition of the erythemic response): in 0.1 cc. ethanol, 12 cm.^2 skin, plotted or calculated, in several instances by extrapolation
Method: A modification of the method of Winder was used to measure the anti-inflammatory activites of the compounds of the present invention; see C. V. Winder, et al., Arch. Int. Pharmacodyn., 116, 261 (1958). Albino guinea pigs of either sex, weighing 225-300 grams, were shaved on the back and chemically depilated (Nair® Lotion Hair Remover, Carter Products, N.Y., N.Y.) 18-20 hours before exposure to ultraviolet light. The animals, in groups of four and bearing identifying ear tags, were treated by applying to an area of skin of about 12 cm.^2 a solution of test compound dissolved in 0.1 cc. of ethanol. The control treatment consisted of administering only the drug vehicle, ethanol, to a group of four animals. Groups of four animals each were given different treatment levels of test compound to obtain dose responses. Random order and blind administration of the test compounds were employed; drug identification was not made until after all animals were graded. Immediately prior to drug application, the animals were exposed in groups of four to a high-intensity ultraviolet light for a measured period of time (usually 4-7 seconds). The ultraviolet light source, a Hanovia Lamp (Kroymayer-Model 10), was placed in contact with the skin of the animal's back. A gummed notebook paper reinforcement was affixed to the lamp lens to provide an unexposed area of contrast for grading the erythema. Beginning one hour after exposure and thereafter at half-hour intervals for another 11/2 hours, the degree of resulting erythema was graded by an arbiturary scoring system based upon the degree of contrast and redness formed. Anti-inflammatory agents delay the development of the erythema and usually have their greatest effect at the initial grading periods. The scores were, therefore, weighted by factors of 4, 3, 2, and 1 at the 1.0, 1.5, 2.0, and 2.5 hour scoring times, respectively. The erythema was graded as follows: […]
______________________________________
Score Appearance of Exposed Area
0 No redness and no contrast
1 Slight redness with a faint
2 Slight to moderate redness
with a distinct outline
3 Marked redness with a distinct
Total scores from each treatment group of four guinea pigs were compared to the control treatment, and the percent inhibition was calculated as follows: [formula]
A dose-response graph was obtained by plotting dose versus percent inhibition, the points representing the average of each treatment group of four guinea pigs. The dose (ED50) in micrograms per 12 cm.^2 (mcg./12 cm.^2) which produced a 50% inhibition of the erythemic response for the particular compound tested was obtained in several instances by extrapolation. Table I below summarizes the results obtained from testing representative compounds of the invention by the foregoing method. The plotted or calculated ED50 for the particular compound tested, where available, is given in the last column of Table I.

SMILES | Inhibition % (% Inhibition compared with control) | ED50 (dose which produced a 50% inhibition of the erythemic response)
COc1ccc(-c2nnc(SC(C)C)nc2-c2ccc(OC)cc2)cc1 [CH(CH3)2 S 1 OCH3 OCH3, 3-isopropylthio-5,6-bis(4-methoxyphenyl)-1,2,4-triazine] | 35% | –
CCOc1nnc(-c2ccc(OC)cc2)c(-c2ccc(OC)cc2)n1 [C2 H5 O 1 OCH3 OCH3, 3-ethoxy-5,6-bis(4-methoxyphenyl)-1,2,4-triazine] | – | 3.1 mcg./12 cm.^2
CCCCCCSc1nnc(-c2ccc(OC)cc2)c(-c2ccc(OC)cc2)n1 [C6 H13 S 1 OCH3 OCH3, 3-hexylthio-5,6-bis(4-methoxyphenyl)-1,2,4-triazine] | – | 37.4 mcg./12 cm.^2
CCc1nnc(-c2ccc(OC)cc2)c(-c2ccc(OC)cc2)n1 [C2 H5 -- 0 OCH3 OCH3, 3-ethyl-5,6-bis(4-methoxyphenyl)-1,2,4-triazine] | – | 4 mcg./12 cm.^2
CCSc1nnc(-c2ccc(OC)cc2)c(-c2ccc(OC)cc2)n1 [C2 H5 S 1 OCH3 OCH3, 3-ethylthio-5,6-bis(4-methoxyphenyl)-1,2,4-triazine] | – | 21.3 mcg./12 cm.^2
COc1ccc(-c2nnc(C)nc2-c2ccc(OC)cc2)cc1 [CH3 -- 0 OCH3 OCH3, 5,6-bis(4-methoxyphenyl)-3-methyl-1,2,4-triazine] | – | 2.4 mcg./12 cm.^2
COc1ccc(-c2nnc(SCc3ccccc3)nc2-c2ccc(OC)cc2)cc1 [CH2 C6 H5 S 1 OCH3 OCH3, 3-benzylthio-5,6-bis(4-methoxyphenyl)-1,2,4-triazine] | 49% | –
COc1ccc(-c2nnc(SC)nc2-c2ccc(OC)cc2)cc1 [CH3 S 1 OCH3 OCH3, 5,6-bis(4-methoxyphenyl)-3-methylthio-1,2,4-triazine] | – | 9 mcg./12 cm.^2
COc1ccc(-c2nnc(OC)nc2-c2ccc(OC)cc2)cc1 [CH3 O 1 OCH3 OCH3, 3-methoxy-5,6-bis(4-methoxyphenyl)-1,2,4-triazine] | – | 7 mcg./12 cm.^2
